Entries after “also recorded” stand apart in the source; their conditions may differ. Each block holds one compound with its values, some of them ahead of it.
Experiments:
[1] = Micro conjugation (labeling of ≥0.1 mg monoclonal antibody): D/P, protein recovery, free dye; conditions: 15 μg dye or commercial kit, mouse MAb
Method: Another experiment set used inventive and commercial compounds, each as the NHS ester, in a micro conjugation (labeling of≥0.1 mg antibody). […] The antibodies were labeled and purified as described above.

[2] = Absorption/emission profiles and spectral properties of the dyes; assay type: physicochemical
Method: The following properties of 679 Compound 1-NHS were compared with commercially available dyes.
Emission/excitation profiles for inventive and commercial compounds was determined by reconstituting the compounds in DMF at 10 mg/ml and then diluting in PBS buffer pH 7.2 to 10 μg/ml. Absorbance spectra were collected on Cary UV spectrophotometer and emission spectra were collected on Tecan Safire, shown in FIG. 1 where solid lines represent absorbance spectra and dashed lines represent emission spectra, for DyLight 680-NHS (purple), DyLight 680B-NHS (blue), 679 Compound 1-NHS (red), and Company B Compound-NHS (black). The maximum absorbance and emission for each compound is shown below.
The following properties of 679 Compound 1-NHS, 679 Compound 4/4-NHS (V08-15173), and 679 Compound 4/4-NHS (V10-04152) were compared with commercially available dyes.

[3] = system: CEA; design: species or system nu/nu mice; conditions: mouse; for post-experiment surgical exposure (in words): in vivo
Method: The inventive compounds are used for in vivo imaging as described in J. Gastrointest Surg (2008) 12:1938-1950. Briefly, human pancreatic cell lines are maintained in media supplemented with penicillin/streptomycin at 37° C. with 5% CO2. Mouse anti-CEA antibody and Control Mouse IgG (in PBS with 0.20% sodium azide) are conjugated to V08-15173. The dye is reconstituted at 10 mg/ml in DMF and then added to the antibody at a 10 molar excess. The reaction is carried out for one hour at room temperature. The samples are then dialyzed against 3×2 L of PBS. The cell lines are plated in 96-well plates at 5×10^4 cells per well. After 48 hours culture in appropriate media, the cells are incubated with 1 μg of V08-15173 labeled anti-CEA antibody or V08-15173-labeled control mouse IgG for four hours at 37° C. The cells are then washed three times with PBS and then imaged with an inverted Nikon De-485 microscope and Spot camera RD.
Surgical procedures and intravital imaging are performed with the animals anesthesized by intramuscular injection of 0.02 ml of 50% ketamine, 38% xylazine and 12 acepromazine maleate. Human pancreatic and colorectal cancer cell lines are harvested by trypsinization and washed twice with serum free medium and washed twice with serum-free medium. Cells (1×10^6 in 100 μl of serum-free media) are injected subcutaneously within 30 minutes of harvesting over the right flank in female nu/nu mice between 4-6 weeks of age. Subcutaneous tumors are allowed to grow for 7-14 days until they reached diameter of 1-2 mm prior to the delivery of conjugated antibody. For ASPC-1 implants, the cells are harvested by trpsinization and washed 3× in serum-free media. The cells are resuspended in serum-free media. The cells are resuspended in serum-free media at 5×10^6/ml. A volume of 200 μl of the cell suspension is then injected directly into the peritoneal cavity within 30 minutes of harvesting.
For antibody delivery, one to two weeks after subcutaneous, orthotopic, or intraperitoneal tumor implantation, animals are given intravenous (i.v.) injection of either conjugated anti-CEA or conjugated control IgG antibody diluted in PBS to a final volume of 100 μl. All i.v. injections are done via the tail vein. For the dose-response experiment, the antibody dose is 75 μg. For the in vivo time course, the animals are anesthesized and imaged at 30 min, 1, 2, 6, 24 hours and 8 and 15 days after systemic antibody delivery.
The inventive compounds are used for in vivo imaging as described in J. Gastrointest Surg (2008) 12:1938-1950. Briefly, human pancreatic cell lines are maintained in media supplemented with penicillin/streptomycin at 37° C. with 5% CO2. Mouse anti-CEA antibody and Control Mouse IgG (in PBS with 0.20% sodium azide) are conjugated to 779 Compound 1. […]

[4] = system: lamin A; experiment: Immunofluorescence detection of lamin A in U2OS cells, dye-GAM secondary (FIG. 29A-C and repeat); assay type: cell-based, human; conditions: for Mean Total Intensity, Negative control: no primary antibody
Method: In the indicated experiments, the inventive compounds and commercial dye were evaluated for immunofluorescence in a cell based assay using the following protocol. Frozen U20S cell plates which were stored at −80° C. were thawed for 45 minutes at 50° C. Storage buffer (PBS) was removed and the cells were permeabilized for 15 minutes with 0.1% Triton-X100 in 1×PBS buffer (100 μl/well). The cell plate was blocked for 60 minutes in 2% BSA/PBS-0.1% Triton-X100. Primary antibody, either rat anti-Grp94 (5 μg/ml), mouse anti-lamin A (10 μg/ml), or rabbit anti-lamin B1 (10 μg/ml), diluted in 2% BSA/PBS-0.1% Triton-X100 was added to the plate and incubated for 1 hour at room temperature. Control wells contained only 2% BSA/PBS-0.1% Triton-X100 blocker. After incubation, the antibody solution was removed from the plate and the plate was washed three times with 100 μl/well of PBS-0.5% Tween-20 and one time with 100 μl/well PBS. GARat, GAM, or GAR secondary antibodies labeled with various molar excess of the inventive or commercial compound were diluted to 4 μg/ml in PBS and incubated for 1 hour at room temperature. The plates were washed three times with 100 μl/well of PBST and once with 100 μl/well PBS, and Hoechst (diluted to 0.1 μg/ml in PBS) was added to each well (100 μl/well). The plates were scanned on ArrayScan Plate Reader or ToxInsight Instrument.
Quantitative analysis of a repeat experiment of FIG. 29A-C are shown below.

[5] = first property table of Example 6
[6] = second property table of Example 6

Compound: Alexa 680-PDI
% Free Dye [1]: 9%

Compound: CF 680R-cytochrome C
% Free Dye [1]: 5%

Compound: COCC[N+]1=C(/C=C/C=C/C=C2/N(CCCCCC(=O)O)c3ccc4c(S(=O)(=O)[O-])cc(S(=O)(=O)[O-])cc4c3C2(C)C)C(C)(CCCS(=O)(=O)[O-])c2c1ccc1c(S(=O)(=O)[O-])cc(S(=O)(=O)[O-])cc21.[Na+].[Na+].[Na+].[Na+] (single isomer, unassigned) [679 Compound 1/1 (Isomer 2), 2-{(1E,3E)-5-[3-(5-Carboxypentyl)-1,1-dimethyl-6,8-disulfo-1,3-dihydro-benzo[e]indol-(2E)-ylidene]-penta-1,3-dienyl}-3-(2-methoxy-ethyl)-1-methyl-6,8-disulfo-1-(3-sulfopropyl)-1H-benzo[e]indolium]
λem ([2]; PBS): 698 nm

Compound: Alexa 680-cytochrome C
% Free Dye [1]: 3%

Compound: CF 680-cytochrome C
% Free Dye [1]: 17%

Em (nm) [2, 5]: 698 nm | Ex (nm) [2, 5]: 679 nm | Em (nm) [2, 6]: 698 nm | Ex (nm) [2, 6]: 679 nm | ε (M^−1cm^−1) (theoretical) ([2]; theoretical): 180,000 M^−1cm^−1 | ε (M−1cm−1) (theoretical) ([2]; theoretical): 180,000 M−1cm−1
Compound: COCC[N+]1=C(/C=C/C=C/C=C2/N(CCCCCC(=O)ON3C(=O)CCC3=O)c3ccc4c(S(=O)(=O)[O-])cc(S(=O)(=O)O)cc4c3C2(C)C)C(C)(CCCS(=O)(=O)O)c2c1ccc1c(S(=O)(=O)O)cc(S(=O)(=O)O)cc21 (stereo not drawn) [679 Compound 1-NHS]

Compound: COCC[N+]1=C(/C=C/C=C/C=C/C=C2/N(CCCCCC(=O)O)c3ccc4c(S(=O)(=O)[O-])cc(S(=O)(=O)O)cc4c3C2(C)C)C(C)(CCCS(=O)(=O)O)c2c1ccc1c(S(=O)(=O)O)cc(S(=O)(=O)O)cc21 (stereo not drawn) [779 Compound 1]
Ex vivo analysis of the vital organs (in words) [3]: presence of dye predominantly in the liver with some signal detected in the spleen intestines and lungs | post-experiment surgical exposure (in words) [3]: accumulation of dye in the liver, bladder, and a region of inflammation in the subcutaneous tissue

Compound: COCCOCCOCCOCC[N+]1=C(/C=C/C=C/C=C2/N(CCOCCOCCOCCOCCC(=O)ON3C(=O)CCC3=O)c3ccc4c(S(=O)(=O)[O-])cc(S(=O)(=O)O)cc4c3C2(C)CCOCCOCCOCCOC)C(C)(CCOCCOCCOCCOC)c2c1ccc1c(S(=O)(=O)O)cc(S(=O)(=O)O)cc21 (stereo not drawn) [Compound V08-15173]
Ex vivo analysis of the vital organs (in words) [3]: presence of dye predominantly in the liver with some signal detected in the spleen intestines and lungs | post-experiment surgical exposure (in words) [3]: accumulation of dye in the liver, bladder, and a region of inflammation in the subcutaneous tissue | S/B ([4]; 2.5 X molar excess): 2.9 | S/B ([4]; 5.0 X molar excess): 4.9 | S/B ([4]; 7.5 X molar excess): 6.0 | S/B ([4]; 10 X molar excess): 4.9 | S/B ([4]; 15 X molar excess): 4.6 | Mean Total Intensity (Average) ([4]; GAM conjugate 4 μg/ml, 2.5 X molar excess): 17366 | Mean Total Intensity (Average) ([4]; GAM conjugate 4 μg/ml, 5.0 X molar excess): 32820 | Mean Total Intensity (Average) ([4]; GAM conjugate 4 μg/ml, 7.5 X molar excess): 42876 | Mean Total Intensity (Average) ([4]; GAM conjugate 4 μg/ml, 10 X molar excess): 47756 | Mean Total Intensity (Average) ([4]; GAM conjugate 4 μg/ml, 15 X molar excess): 49060 | non-specific binding / specificity (in words) ([4]; GAM conjugates): a minimal amount of non-specific binding; also recorded: little non-specific binding | Mean Total Intensity, Negative control ([4]; 2.5 X): 5966 | Mean Total Intensity, Negative control ([4]; 5.0 X): 6643 | Mean Total Intensity, Negative control ([4]; 7.5 X): 7100 | Mean Total Intensity, Negative control ([4]; 10 X): 9690 | Mean Total Intensity, Negative control ([4]; 15 X): 10779 | S/B ([4]; repeat experiment, 2.5 X): 9.8 | Mean Total Intensity (Average) ([4]; repeat experiment, 2.5 X molar excess): 118440 | S/B ([4]; repeat experiment, 5 X): 19.4 | Mean Total Intensity (Average) ([4]; repeat experiment, 5 X molar excess): 183078 | S/B ([4]; repeat experiment, 10X): 29.9 | Mean Total Intensity (Average) ([4]; repeat experiment, 10X molar excess): 391473 | S/B ([4]; repeat experiment, 15 X): 12.2 | Mean Total Intensity (Average) ([4]; repeat experiment, 15 X molar excess): 211270 | Mean Total Intensity, Negative control ([4]; repeat experiment, 2.5 X): 12053 | Mean Total Intensity, Negative control ([4]; repeat experiment, 5 X): 9441 | Mean Total Intensity, Negative control ([4]; repeat experiment, 10X): 13094 | Mean Total Intensity, Negative control ([4]; repeat experiment, 15 X): 17260

Compound: COCCOCCOCCOCC[N+]1=C(/C=C/C=C/C=C2/N(CCOCCOCCOCCOCCC(=O)ON3C(=O)CCC3=O)c3ccc4c(S(=O)(=O)[O-])cc(S(=O)(=O)O)cc4c3C2(C)CCOCCOCCOCCOC)C(C)(CCOCCOCCOCCOC)c2c1ccc1c(S(=O)(=O)O)cc(S(=O)(=O)O)cc21 (stereo not drawn) [V08-15173 NHS]
Em (nm) [2, 6]: 706 nm | Ex (nm) [2, 6]: 684 nm | ε (M^−1cm^−1) (theoretical) ([2]; theoretical): 180,000 M^−1cm^−1

Compound: COCC[N+]1=C(/C=C/C=C/C=C2/N(CCCCCC(=O)O)c3ccc4c(S(=O)(=O)[O-])cc(S(=O)(=O)[O-])cc4c3C2(C)C)C(C)(CCCS(=O)(=O)[O-])c2c1ccc1c(S(=O)(=O)[O-])cc(S(=O)(=O)[O-])cc21.[Na+].[Na+].[Na+].[Na+] (single isomer, unassigned) [679 Compound 1/1 (Isomer 1), 2-{(1E,3E)-5-[3-(5-Carboxypentyl)-1,1-dimethyl-6,8-disulfo-1,3-dihydro-benzo[e]indol-(2E)-ylidene]-penta-1,3-dienyl}-3-(2-methoxy-ethyl)-1-methyl-6,8-disulfo-1-(3-sulfopropyl)-1H-benzo[e]indolium]
UV-vis (PBS): λmax ([2]; PBS): 679 nm | λem ([2]; PBS): 698 nm
